The values below come from US20050244983A1, “Method for measuring antioxidant status” (The Western Australian Centre for Pathology and Medical …, priority 2002, published 2005).

Experiment [1] can be described thus: AIOR assay (antioxidant inhibition of radical assay): uroporphyrin I fluorescence decay with AAPH, area under curve against Trolox standard curve. To be noted: for Area Under Curve (mean ± SD): uroporphyrin 1/1000, ratio 1:45:280, n=6; for Antioxidant Status (mM) Trolox Equivalent Calculated 1/16 Dilution: calculated from the observed ¼ dilution value; for Antioxidant Status Trolox Equivalent (mM) of the observed individual ¼ Dilution: individual polyphenol; for Antioxidant Status Trolox Equivalent (mM) of the observed individual ¼ Dilution / Antioxidant status in mM Trolox equivalent, High value / Antioxidant status in mM Trolox equivalent, Low value / Antioxidant status in mM Trolox equivalent, Mean value: n=9; for antioxidant activity of solvent (in words) / Antioxidant status in mM Trolox equivalent, High value / Antioxidant status in mM Trolox equivalent, Low value / Antioxidant status in mM Trolox equivalent, Mean value: solvent compared against blank. The format is biochemical. As for the experimental part:
The stock phosphate buffer (0.75 M, pH 7.0) was prepared by mixing 61.1:38.9 (v/v) of a 0.75 M K2HPO4 and a 0.75 M NaH2PO4 solution. The working phosphate buffer 75 mM, pH 7.0 was prepared by a 1:9 (v/v) dilution of the 0.75 M stock phosphate buffer.
AAPH (583 mM) was prepared by dissolving completely 0.474 g of AAPH in 3 mL of 75 mM, pH 7.0 phosphate buffer. This solution was prepared freshly before each run.
Uroporphyrin stock solution (225 μM) was prepared by dissolving 1.2 mg of uroporphyrin I dihydrochloride in 5.9 mL of phosphate buffer (75 mM, pH 7.0). This solution was very stable for many months by storing in the dark at 4° C. A secondary uroporphyrin stock solution for routine use was prepared by a 1:50 (v/v) dilution of the stock uroporphyrin solution with phosphate buffer (75 mM, pH 7.0). This secondary stock solution was stable for several months in the dark at 4° C. A working uroporphyrin solution for daily use was prepared by a 1:750 (v/v) dilution of the secondary uroporphyrin solution with phosphate buffer (75 mM, pH 7.0).
To enable complete solubility of both hydrophobic and hydrophilic compounds in the sample, a surfactant Brij 35™ was added to the working uroporphyrin solution in the quantity of 0.1% of the reagent.
Trolox was used as an antioxidant standard to compare the antioxidant status of various inorganic and organic matter. A stock Trolox standard solution (5.0 mM) was prepared by dissolving Trolox 35 (250 mg) in 200 mL of phosphate buffer (75 mM, pH 7.0). Working standards of Trolox were prepared by diluting the stock Trolox standard to 0.5, 1.0 and 2.0 mM with the same buffer.
Sample/blank/standard (1 μL), and working uroporphyrin solution (0.300 uM) with Brij™ (136 μL) were added to the wells of a 96-well microplate. Blank, standards or diluted samples were added first into the well, followed by working uroporphyrin solution with Brij™. The contents of each well was mixed using a plateshaker for 1-2 minutes. Freshly prepared AAPH solution […] (22 μL) was then added. This procedure provided a sample to AAPH to uroporphyrin ratio of (1:22:136). The contents of the wells were then mixed again for exactly 2 minutes before acquisition of data with the Varian Cary Eclipse fluorescence spectrophotometer. A sample to reagent ratio of (2:30:186) was also used to further improve the precision of the assay.
The Varian Cary Eclipse fluorescence spectrophotometer settings were as follows. • Excitation λ=397 nm; Emission λ=615 nm. • Excitation Slit=20 nm; Emission Slit=10 nm. • Ave Time=0.2 sec. • Run Time=180 minutes. • Y (min-max)=0-1000. • Excitation Filter: Auto. • Emission Filter: Open. • PMT: Variable (Choice of low, medium or high).
The method takes the free radical action to completion in 180 minutes. The Varian Cary Eclipse fluorescence spectrophotometer has the ability to achieve high throughput of 96 samples in 180 minutes with the 96-wellplate format. […] This invention provides both a method and reagent, which can accurately, easily, economically, and quickly analyze antioxidant status.
The results of the analysis were normalized by Varian Cary Eclipse software and calculated by GraphPad Prism 4.0 software (GraphPad Software, Inc., San Diego Calif., 2003).

Experiment in experiment [2]: as above
The format is biochemical. To be noted: for Area Under Curve (mean ± SD): uroporphyrin 1/1000, ratio 1:45:280, n=6.

Several values for one entry are separate records, joined by “and”; a condition that tells them apart may be missing. Equal values may be shown once.

Turning to `Cc1c(C)c2c(c(C)c1O)CCC(C)(C(=O)O)O2` (racemic) [Trolox, (±)6-hydroxy-2,5,7,8-tetramethylchromane-2-carboxylic acid], the “Area Under Curve (mean ± SD)” value in experiment [1] (STD 1.0 mM, AAPH 640 mM) is recorded as 35554 ± 2267; in experiment [1] (STD 4.0 mM, AAPH 583 mM), 77238 ± 3701; in experiment [2] (STD 1.0 mM, AAPH 583 mM), 40829 ± 4000; in experiment [2] (STD 2.0 mM, AAPH 583 mM), 55416 ± 3207; in experiment [2] (STD 2.0 mM, AAPH 640 mM), 44522 ± 2348; in experiment [2] (STD 4.0 mM, AAPH 640 mM), 69220 ± 6603. In addition, the “Mean Area Under Curve” value in experiment [1] (Trolox 0.5 mM, 20 μL Brij 35 per 15 mL working uroporphyrin solution, n=24) is reported as 45482; in experiment [1] (Trolox 0.5 mM, 100 μL Brij 35 per 15 mL working uroporphyrin solution, n=24), 52714; in experiment [1] (Trolox 0.5 mM, intra-assay precision, n=16), 47456; in experiment [1] (Trolox 1.0 mM, 20 μL Brij 35 per 15 mL working uroporphyrin solution, n=24), 57154; in experiment [1] (Trolox 1.0 mM, 100 μL Brij 35 per 15 mL working uroporphyrin solution, n=24), 61482; in experiment [1] (Trolox 1.0 mM, intra-assay precision, n=16), 57535. In addition, the “Mean Area Under Curve” value in experiment [1] (Trolox 2.0 mM, 20 μL Brij 35 per 15 mL working uroporphyrin solution, n=24) came out at 72596; in experiment [1] (Trolox 2.0 mM, intra-assay precision, n=16) it was 76499; in experiment [2] (Trolox 2.0 mM, 100 μL Brij 35 per 15 mL working uroporphyrin solution, n=24) it was 71394.

Turning to `Oc1cc(O)c2c(c1)O[C@H](c1ccc(O)c(O)c1)[C@H](O)C2` [(−) Epicatechin, (−) epicatechin], in experiment [1], the “Antioxidant Status (mM) Trolox Equivalent Calculated 1/16 Dilution” value is 1.00 mM and the “Antioxidant Status Trolox Equivalent (mM) of the observed individual ¼ Dilution” value was determined as 4.03 ± 0.28 mM. The “Antioxidant Status Trolox Equivalent (mM ± SD)” value in experiment [1] (polyphenol 0.25 mM in ethanol) is 1.62 ± 0.13 mM. In addition, the “Antioxidant Status Trolox Equivalent (mM ± SD)” value in experiment [1] (polyphenol 0.5 mM in ethanol) is recorded as 3.69 ± 0.23 mM.

As for `CC(C)=O` [Acetone], in experiment [1], the “antioxidant activity of solvent (in words)” value (shortened to “antioxidant activity”) is “no antioxidant activity”; the “Antioxidant status in mM Trolox equivalent, High value” (from here on “Antioxidant status … High value”) was 0.2 mM; the “Antioxidant status in mM Trolox equivalent, Low value” (from here on “Antioxidant status … Low value”) came to 0.0 mM; the “Antioxidant status in mM Trolox equivalent, Mean value” (“Antioxidant status … Mean value” for short) was determined as 0.08 mM.

As for `C[S+](C)[O-]` [DMSO, Dimethyl sulphoxide], in experiment [1], the “Antioxidant status … High value” is given as 1.2 mM; the “Antioxidant status … Low value” is on record as 0.6 mM; the “Antioxidant status … Mean value” turned out to be 0.86 mM.

Turning to `CCO` [Ethanol], in experiment [1], the “antioxidant activity” value is reported as “no antioxidant activity”; the “Antioxidant status … High value” was 0.1 mM; the “Antioxidant status … Low value” worked out at 0.0 mM; the “Antioxidant status … Mean value” came out at 0.08 mM.

For the molecule `O=C(O)c1cc(O)c(O)c(O)c1` [Gallic acid], in experiment [1], the “Antioxidant Status (mM) Trolox Equivalent Calculated 1/16 Dilution” value is listed as 0.45 mM and the “Antioxidant Status Trolox Equivalent (mM) of the observed individual ¼ Dilution” value is listed as 1.75 ± 0.11 mM. Further, the “Antioxidant Status Trolox Equivalent (mM ± SD)” value in experiment [1] (polyphenol 0.25 mM in ethanol) stood at 0.46 ± 0.07 mM. Moreover, the “Antioxidant Status Trolox Equivalent (mM ± SD)” value in experiment [1] (polyphenol 0.5 mM in ethanol) is on record as 1.22 ± 0.17 mM.

Regarding `CC(C)O` [Isopropanol], in experiment [1], the “antioxidant activity” value is “no antioxidant activity”; the “Antioxidant status … High value” amounted to 0.1 mM; the “Antioxidant status … Low value” is reported as 0.0 mM; the “Antioxidant status … Mean value” worked out at 0.04 mM.

Turning to `O=c1c(O)c(-c2ccc(O)c(O)c2)oc2cc(O)cc(O)c12` [Quercetin], in experiment [1], the “Antioxidant Status (mM) Trolox Equivalent Calculated 1/16 Dilution” value is 1.10 mM and the “Antioxidant Status Trolox Equivalent (mM) of the observed individual ¼ Dilution” value is listed as 4.41 ± 0.44 mM. Also, the “Antioxidant Status Trolox Equivalent (mM ± SD)” value in experiment [1] (polyphenol 0.25 mM in ethanol) is on record as 1.82 ± 0.13 mM. The “Antioxidant Status Trolox Equivalent (mM ± SD)” value in experiment [1] (polyphenol 0.5 mM in ethanol) is given as 4.58 ± 0.24 mM.

In the case of `O=c1[nH]c(=O)c2[nH]c(=O)[nH]c2[nH]1` [Uric Acid, Uric acid], the “Antioxidant Status in Trolox Equivalent (mM ± SD)” value stood at 0.6 ± 0.1 mM in experiment [1] (uric acid 424 μM in phosphate buffer, n=12); 0.6 mM in experiment [1] (uric acid 424 μM in phosphate buffer, n=12, listed as uric acid); 1.2 ± 0.1 mM in experiment [1] (uric acid 848 μM in phosphate buffer, n=12); 1.2 mM in experiment [1] (uric acid 848 μM in phosphate buffer, n=12, listed as uric acid); 2.4 ± 0.1 mM in experiment [1] (uric acid 1696 μM in phosphate buffer, n=12); 2.4 mM in experiment [1] (uric acid 1696 μM in phosphate buffer, n=12, listed as uric acid). Moreover, the “estimation of mean antioxidant status, Trolox equivalent” value in experiment [1] (uric acid at physiological upper range for female, 340 μmol/L) is reported as 0.48 mM; in experiment [1] (uric acid at physiological upper range for male, 420 μmol/L) it was 0.59 mM.

With `O=C1O[C@H]([C@@H](O)CO)C(O)=C1O` [Vitamin C], the “Antioxidant Status in Trolox Equivalent (mM ± SD)” value in experiment [1] (vitamin C 2.65 mM in deionized water, n=12) was determined as 0.9 ± 0.1 mM; in experiment [1] (vitamin C 2.65 mM in deionized water, n=12, listed as vitamin C) it was 0.9 mM; in experiment [1] (vitamin C 5.30 mM in deionized water, n=12) it was 1.8 ± 0.1 mM; in experiment [1] (vitamin C 5.30 mM in deionized water, n=12, listed as vitamin C) it was 1.8 mM; in experiment [1] (vitamin C 10.6 mM in deionized water, outside standard curve range, n=12), 4.0 ± 0.2 mM; in experiment [1] (vitamin C 10.6 mM in deionized water, outside standard curve range, n=12, listed as vitamin C), 4.0 mM.

As to `Cn1c(=O)c2c(ncn2C)n(C)c1=O` [caffeine], in experiment [1] (caffeine 9.6 mmol/L in phosphate buffer), the “mean antioxidant status in Trolox equivalent” value was determined as 0.2 mM.

Take (±) catechin: the “Antioxidant Status Trolox Equivalent (mM ± SD)” value in experiment [1] (polyphenol 0.25 mM in ethanol) turned out to be 1.60 ± 0.07 mM; in experiment [1] (polyphenol 0.5 mM in ethanol), 3.47 ± 0.19 mM.

Take Albumin: the “Antioxidant Capacity in Trolox Equivalent (mM ± SD)” value in experiment [1] (albumin 20 g/L in phosphate buffer, n=12) is 1.2 mM and 1.2 ± 0.1 mM; in experiment [1] (albumin 40 g/L in phosphate buffer, n=12) it was 2.4 mM and 2.4 ± 0.1 mM.

On to Vitamin A, for which the “Antioxidant Status in Trolox Equivalent (mM ± SD)” value in experiment [1] (vitamin A 1940 μM in isopropanol, n=10) was 0.6 ± 0.1 mM; in experiment [1] (vitamin A 1940 μM in isopropanol, n=10, listed as vitamin A), 0.56 mM; in experiment [1] (vitamin A 3880 μM in isopropanol, n=10) it was 1.1 ± 0.1 mM; in experiment [1] (vitamin A 3880 μM in isopropanol, n=10, listed as vitamin A) it was 1.11 mM; in experiment [1] (vitamin A 5820 μM in isopropanol, n=10), 1.4 ± 0.1 mM; in experiment [1] (vitamin A 5820 μM in isopropanol, n=10, listed as vitamin A), 1.41 mM.

For Vitamin E, the “Antioxidant Status in Trolox Equivalent (mM ± SD)” value came out at 0.4 ± 0.1 mM in experiment [1] (vitamin E 952 μM in isopropanol, n=10); 0.4 mM in experiment [1] (vitamin E 952 μM in isopropanol, n=10, listed as vitamin E); 1.1 ± 0.1 mM in experiment [1] (vitamin E 1905 μM in isopropanol, n=10); 1.1 mM in experiment [1] (vitamin E 1905 μM in isopropanol, n=10, listed as vitamin E); 2.7 ± 0.1 mM in experiment [1] (vitamin E 3810 μM in isopropanol, n=10); 2.7 mM in experiment [1] (vitamin E 3810 μM in isopropanol, n=10, listed as vitamin E).
